Results reported in ChEMBL document CHEMBL1201862, “PubChem BioAssay data set” (2004).
Activity calls are given as the source filed them.

Key:
[1] = biological target: T1, Neuropeptides B/W receptor type 1 (Homo sapiens, UniProt P48145); test: GPR7 antagonist potency, late-stage follow-up, cell-based, fluorescence, dose response, set 5 (AID 588566); format: functional
T1 sequence (P48145 whole entry): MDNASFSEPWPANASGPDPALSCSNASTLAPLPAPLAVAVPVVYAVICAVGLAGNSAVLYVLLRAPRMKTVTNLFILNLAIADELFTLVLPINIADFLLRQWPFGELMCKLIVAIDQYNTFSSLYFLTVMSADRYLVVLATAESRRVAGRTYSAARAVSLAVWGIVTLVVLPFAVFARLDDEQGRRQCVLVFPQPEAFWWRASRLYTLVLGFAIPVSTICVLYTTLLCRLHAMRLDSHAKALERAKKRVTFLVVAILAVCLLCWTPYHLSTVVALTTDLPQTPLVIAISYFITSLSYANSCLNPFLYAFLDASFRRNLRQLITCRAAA

[2] = biological target: Melanin-concentrating hormone receptor 1 (Homo sapiens, UniProt Q99705); test: Late-stage fluorescence-based counterscreen for antagonists of the G-protein coupled receptor 7 (GPR7): cell-based dose response assay to identify antagonists of the melanin-concentrating hormone receptor 1 (MCHR1) Set 5.; format: functional
Chain of Melanin-concentrating hormone receptor 1 (Q99705 whole entry): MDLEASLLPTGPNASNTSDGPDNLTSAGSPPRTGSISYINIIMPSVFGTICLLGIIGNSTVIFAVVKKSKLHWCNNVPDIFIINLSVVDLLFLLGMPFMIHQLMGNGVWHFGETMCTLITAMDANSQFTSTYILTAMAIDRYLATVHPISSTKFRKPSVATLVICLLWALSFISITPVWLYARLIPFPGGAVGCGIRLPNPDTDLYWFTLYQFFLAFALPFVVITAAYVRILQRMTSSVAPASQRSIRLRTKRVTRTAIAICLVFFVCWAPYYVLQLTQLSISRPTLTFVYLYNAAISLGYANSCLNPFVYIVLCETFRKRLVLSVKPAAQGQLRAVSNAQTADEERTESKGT

[3] = biological target: T2, Multidrug resistance protein CDR2 (Candida albicans (strain SC5314 / ATCC MYA-2876) (Yeast), UniProt P78595); test: CaCDR2 efflux pump inhibitors in yeast, dose response, S. cerevisiae AD1-8u, singleplex, Cherry Pick2 set (AID 623994); format: functional; details: read-out: EC50_MICROM
T2 sequence (P78595 whole entry): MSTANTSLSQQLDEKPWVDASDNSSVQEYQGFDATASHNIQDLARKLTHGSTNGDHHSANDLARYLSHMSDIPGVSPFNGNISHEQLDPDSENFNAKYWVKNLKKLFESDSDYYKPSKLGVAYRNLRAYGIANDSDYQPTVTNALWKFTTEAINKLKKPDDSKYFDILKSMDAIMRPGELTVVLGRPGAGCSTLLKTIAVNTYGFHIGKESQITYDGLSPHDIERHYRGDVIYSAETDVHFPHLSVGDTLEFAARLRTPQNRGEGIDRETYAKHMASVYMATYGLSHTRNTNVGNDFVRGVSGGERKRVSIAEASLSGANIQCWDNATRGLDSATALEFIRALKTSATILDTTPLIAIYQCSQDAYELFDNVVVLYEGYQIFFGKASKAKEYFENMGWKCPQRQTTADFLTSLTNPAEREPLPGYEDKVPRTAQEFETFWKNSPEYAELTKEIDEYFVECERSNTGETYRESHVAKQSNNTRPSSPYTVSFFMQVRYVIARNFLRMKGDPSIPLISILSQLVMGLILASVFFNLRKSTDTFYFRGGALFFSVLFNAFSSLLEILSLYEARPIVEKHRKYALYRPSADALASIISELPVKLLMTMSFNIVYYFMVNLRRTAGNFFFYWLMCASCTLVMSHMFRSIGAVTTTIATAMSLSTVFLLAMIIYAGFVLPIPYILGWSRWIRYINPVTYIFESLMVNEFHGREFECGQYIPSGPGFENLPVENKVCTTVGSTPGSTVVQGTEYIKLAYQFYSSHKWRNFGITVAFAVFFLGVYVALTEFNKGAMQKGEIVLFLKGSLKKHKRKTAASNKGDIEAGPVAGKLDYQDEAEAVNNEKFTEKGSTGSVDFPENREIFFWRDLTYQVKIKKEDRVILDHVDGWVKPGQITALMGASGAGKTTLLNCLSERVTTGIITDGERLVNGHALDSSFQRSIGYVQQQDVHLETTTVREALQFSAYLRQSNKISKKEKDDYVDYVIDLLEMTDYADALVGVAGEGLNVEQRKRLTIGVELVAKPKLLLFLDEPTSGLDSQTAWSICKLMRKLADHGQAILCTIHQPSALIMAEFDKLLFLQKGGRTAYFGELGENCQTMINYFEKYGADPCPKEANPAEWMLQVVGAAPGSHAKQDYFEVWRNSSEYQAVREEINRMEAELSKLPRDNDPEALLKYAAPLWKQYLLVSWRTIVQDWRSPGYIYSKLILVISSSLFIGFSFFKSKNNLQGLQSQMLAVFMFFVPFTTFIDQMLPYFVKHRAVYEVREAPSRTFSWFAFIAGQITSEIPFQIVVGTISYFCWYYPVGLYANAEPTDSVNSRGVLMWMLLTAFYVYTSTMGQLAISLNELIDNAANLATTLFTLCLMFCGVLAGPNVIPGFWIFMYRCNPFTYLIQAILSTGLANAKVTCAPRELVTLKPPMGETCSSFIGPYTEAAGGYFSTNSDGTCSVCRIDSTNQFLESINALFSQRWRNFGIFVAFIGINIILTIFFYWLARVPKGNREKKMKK

[4] = biological target: T2, Multidrug resistance protein CDR2; test: CaCDR2 efflux pump inhibitors in yeast, dose response, S. cerevisiae AD1-8u, singleplex, Cherry Pick1 hits (AID 588604); format: functional
[5] = biological target: T3, Insulin-degrading enzyme (Homo sapiens, UniProt P14735); test: activators of recombinant IDE enzyme, dose response, counter-screen for IDE activator project, biochemical, fluorescence polarization (AID 588681)
T3 sequence (P14735 whole entry): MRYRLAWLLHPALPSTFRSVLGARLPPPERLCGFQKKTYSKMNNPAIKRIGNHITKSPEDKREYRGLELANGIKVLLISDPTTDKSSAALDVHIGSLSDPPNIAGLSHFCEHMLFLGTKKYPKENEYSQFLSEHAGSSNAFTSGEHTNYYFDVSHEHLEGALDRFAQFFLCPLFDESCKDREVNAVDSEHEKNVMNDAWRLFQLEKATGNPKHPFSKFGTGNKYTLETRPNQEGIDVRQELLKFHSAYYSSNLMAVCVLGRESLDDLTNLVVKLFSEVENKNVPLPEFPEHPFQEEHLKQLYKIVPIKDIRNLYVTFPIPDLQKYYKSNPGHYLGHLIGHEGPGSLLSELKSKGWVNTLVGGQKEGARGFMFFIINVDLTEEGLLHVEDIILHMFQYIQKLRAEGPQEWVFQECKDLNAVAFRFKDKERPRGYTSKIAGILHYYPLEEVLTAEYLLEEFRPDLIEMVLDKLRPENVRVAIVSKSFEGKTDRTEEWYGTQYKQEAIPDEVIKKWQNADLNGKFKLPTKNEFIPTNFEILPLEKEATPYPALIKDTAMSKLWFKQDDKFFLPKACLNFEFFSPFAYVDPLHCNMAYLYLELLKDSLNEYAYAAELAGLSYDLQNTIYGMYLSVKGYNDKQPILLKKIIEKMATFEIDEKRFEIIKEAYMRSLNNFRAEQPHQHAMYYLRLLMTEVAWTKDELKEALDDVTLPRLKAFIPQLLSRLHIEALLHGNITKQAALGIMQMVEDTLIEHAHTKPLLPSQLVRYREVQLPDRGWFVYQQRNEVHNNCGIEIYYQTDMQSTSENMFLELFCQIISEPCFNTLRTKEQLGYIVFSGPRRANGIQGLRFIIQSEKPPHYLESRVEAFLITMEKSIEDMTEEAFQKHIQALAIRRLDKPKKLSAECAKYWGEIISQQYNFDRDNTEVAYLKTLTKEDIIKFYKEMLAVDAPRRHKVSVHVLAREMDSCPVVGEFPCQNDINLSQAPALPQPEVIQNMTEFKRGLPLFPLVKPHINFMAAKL

[6] = tested on: HEK293; test: optical interference in Abeta FP readout, dose response, artefact control for IDE activator project, biochemical, fluorescence polarization (AID 588442); format: functional, cell-based; details: Homo sapiens
[7] = biological target: T3, Insulin-degrading enzyme; test: activators of endogenous IDE in HEK cells, dose response, cell-based, fluorescence polarization (AID 588439); format: functional
[8] = tested on: HEK293; test: HEK cell cytotoxicity by LDH release, dose response, cytotoxicity control for IDE activator project, fluorescence, HEK cells (AID 588440); format: functional, cell-based; details: Homo sapiens;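 also: cytotoxicity by LDH release measuring loss of membrane integrity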
[9] = biological target: Melanocortin receptor 4 (Homo sapiens, UniProt P32245); format: functional, cell-based;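 also: Cell-based assay with luminescence read-out, confirmatory dose-response testing for agonist activity of biased ligands at MC4R; human U2OS cells with tagged receptor and beta-arrestin; potency of agonists that increase receptor coupling to beta-arrestin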
Chain of Melanocortin receptor 4 (P32245 whole entry): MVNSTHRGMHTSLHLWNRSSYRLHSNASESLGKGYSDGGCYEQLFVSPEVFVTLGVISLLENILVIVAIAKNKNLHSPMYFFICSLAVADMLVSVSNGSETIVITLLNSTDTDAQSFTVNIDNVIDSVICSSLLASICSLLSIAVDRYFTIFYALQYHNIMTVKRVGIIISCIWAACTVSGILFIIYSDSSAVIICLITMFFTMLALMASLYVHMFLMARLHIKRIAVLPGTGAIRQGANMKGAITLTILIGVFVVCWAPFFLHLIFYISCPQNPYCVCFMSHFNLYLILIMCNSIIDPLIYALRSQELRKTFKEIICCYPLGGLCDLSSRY

IC50 [1]	IC50 [2]	Structure (SMILES)	EC50 [3]	EC50 [4]	EC50 [5]	EC50 [6]	EC50 [7]	IC50 [8]	EC50 [9]
2.57 µM (active)	8.23 µM (active)	Cc1ccc(Oc2c(Cl)cnn(Cc3cccc4ccccc34)c2=O)cc1							
		Cc1ccc2sc(N(CCCN(C)C)C(=O)c3ccc(Br)s3)nc2c1C	50.5 µM (active)	10.3 µM (active)	> 54.7 µM (inactive)	> 54.7 µM (inactive)	20.1 µM (inactive)	35.3 µM (inactive)	> 89.2 µM (inactive)
